Common to all, as to test: NCI-60 cell line screen, 48 h
Assay [1] relates to MOLT-4 leukemia.
Assay [2] deals with KM12 colon.
Assay [3] relates to OVCAR-5 ovarian.
Assay [4] has as its system SK-MEL-2 melanoma.
Assay [5] concerns HOP-92 NSCLC.
The subject of assay [6] is OVCAR-4 ovarian.
Assay [7] relates to TK-10 renal.
Assay [8] relates to SNB-19 CNS.
In assay [9] the test system is NCI-H226 lung.
Assay [10] relates to CCRF-CEM leukemia.

Where “and” joins values, the source holds several entries; their conditions need not be identical. Identical values can stand only once.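 Five compound concentrations were applied to cells in 96-well plates for 48 hours; endpoints were derived by simple linear interpolation of the resulting dose-response curve. The concentration for 50% growth inhibition is given as GI50. TGI: total growth inhibition.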

For the molecule `CCC[CH2][Sn]1([CH2]CCC)[S]CC[N]1S(=O)(=O)c1ccc(C)cc1`, the GI50 in [1] is 1.14 µM; in assay [2], 2.02 µM; in assay [3] it was 2.82 µM; in assay [4] it was 1.39 µM; in assay [5], 1.19 µM; in assay [6], 1.85 µM. Further, the GI50 is 1.64 µM in assay [7], 1.45 µM in assay [8] and 2.03 µM in assay [9]. The TGI in [1] is 4.04 µM; in [2], 3.59 µM; in assay [3] it was 6.12 µM; in assay [4], 2.73 µM; in assay [5] it was 2.46 µM; in [6], 3.27 µM. Further, the TGI is 3.04 µM in assay [7], 2.75 µM in assay [8] and 3.45 µM in assay [9].

Consider `COc1c(N2CCN(CN3C(=O)C(=Nc4ccc(S(=O)(=O)Nc5ncccn5)cc4)c4cc(Cl)ccc43)C(C)C2)c(F)cc2c(=O)c(C(=O)O)cn(C3CC3)c12` (stereo unspecified), for which the GI50 in [1] is 33.3 µM; in assay [2], 9.61 µM; in assay [3], more than 50 µM; in assay [4] it was 26.6 µM; in assay [5], 19.2 µM; in [7] it was 13.3 µM. The GI50 in assay [8] is 15.7 µM; in assay [9] it was 30 µM. Also, the TGI in assay [1] was more than 50 µM; in assay [2], 26.8 µM; in [3], more than 50 µM; in assay [4], more than 50 µM; in assay [5], more than 50 µM; in [7] it was 35.2 µM. For the same molecule, the figures for the TGI in [8] and in assay [9] were 49.4 µM and more than 50 µM, respectively.

For the molecule `N#CC1=C(N)NC(=O)NC12Nc1ccccc1N2`, the GI50 is more than 100 µM in assay [1]; more than 100 µM in assay [2]; more than 100 µM in assay [3]; more than 100 µM in assay [4]; 31.3 µM in assay [5]; more than 100 µM in assay [6]. Further, the GI50 in [7], in [8] and in assay [9] was more than 100 µM each time. Moreover, the TGI in assay [1], in assay [2], in assay [3], in assay [4], in [5] and in assay [6] was more than 100 µM each time. Also, the TGI in assay [7], in assay [8] and in assay [9] was more than 100 µM in each case.

For `CC1=CCCC2C(C=O)(C1)CC(C)C2(CO)CC/C(=C/CO)CO` (stereo unspecified), the TGI in assay [1] is more than 100 µM; in assay [2], more than 100 µM; in [5], 87.6 µM; in assay [7], more than 100 µM; in assay [9], more than 100 µM; in assay [10] it was more than 100 µM.

Take `CN(C)CCCNc1nc2ccccc2c2[nH]c3ccccc3c12`: the GI50 is 0.276 µM in assay [1]; 0.721 µM in assay [2]; 1.28 µM in assay [3]; 6.69 µM in assay [4]; 1.26 µM in assay [5]; 1.45 µM in assay [7]. Also, the figures for the GI50 in [8], in assay [9] and in [10] were 1.57 µM, 1.26 µM and 0.206 µM, respectively. The TGI amounted to 50 µM in assay [1]; 2.28 µM in [2]; 9.36 µM in assay [3]; 38.8 µM in assay [4]; 3.83 µM in assay [5]; 4.04 µM in [7]. Besides, the TGI in [8] was determined as 6.2 µM; in [9] it was 4.22 µM; in [10], 1.38 µM.

As for `CO/N=C(\COc1ccc2oc(-c3ccccc3)cc(=O)c2c1)c1ccc(F)cc1`, the GI50 in [2] was 46.9 µM; in assay [3], 17.5 µM; in [4] it was 24.4 µM; in assay [6] it was 22.3 µM; in assay [7] it was 22.9 µM; in [9], 29.7 µM. Moreover, the GI50 in [10] is more than 100 µM. The TGI in [2] was more than 100 µM; in assay [3] it was 39.1 µM; in assay [4], 73.3 µM; in assay [6], 55.8 µM; in [7] it was 53 µM; in [9], more than 100 µM. Besides, the TGI in assay [10] is more than 100 µM.

For the molecule `c1cncc(CSc2nc3ccccc3nc2-c2cccs2)c1`, the TGI was 98.7 µM in [1]; more than 100 µM in assay [2]; more than 100 µM in assay [3]; more than 100 µM in assay [4]; more than 100 µM in assay [6]; more than 100 µM in assay [7]. The TGI in assay [8], in assay [9] and in assay [10] was more than 100 µM throughout.

`C[C@]12C[C@H](O)[C@H]3[C@@H](CCC4=CC(=O)CC[C@@]43C)[C@@H]1CC[C@@H]2c1csc(-c2ccccc2)n1`: the TGI in assay [2] is more than 100 µM; in [3] it was more than 100 µM; in [4], more than 90.5 µM; in [5], more than 100 µM; in [6] it was more than 73.8 µM; in assay [7], more than 100 µM. The TGI in [8] and in [9] was more than 100 µM throughout.

With `CO[C@@]1(c2ccccc2)O[C@H]2OCCC2[C@H]1c1ccc(Cl)cc1` (stereo partly specified), the TGI was 92.7 µM in assay [1]; more than 100 µM in [2]; more than 100 µM in assay [3]; 80.9 µM in assay [4]; 91.1 µM in assay [6]; more than 100 µM in assay [7]. Further, the TGI in assay [8] and in assay [9] was more than 100 µM in each case.

`CN(N)c1nc(N)c(C#N)c(C#N)c1C#N`: the TGI in [1], in [2], in assay [3], in assay [5], in assay [6] and in assay [7] was more than 10 µM throughout. Further, the TGI in assay [8] and in assay [10] was more than 10 µM throughout.

Take `O=C1N=C(Nc2nc(-c3csc(NC4=NC(=O)/C(=C\c5ccccc5)S4)n3)cs2)S/C1=C/c1ccccc1`: the GI50 is 3.02 µM in [1]; 11.2 µM in assay [2]; 34 µM in assay [3]; more than 50 µM in [4]; 4.37 µM in assay [5]; 10.1 µM in assay [7]. For the same molecule, the GI50 in assay [8] was 49.1 µM; in assay [9], 0.337 µM. Besides, the TGI in assay [1] was more than 50 µM; in assay [2] it was more than 50 µM; in assay [3] it was more than 50 µM; in [4] it was more than 50 µM; in [5], 20.5 µM; in assay [7] it was 33.3 µM. Also, the TGI was more than 50 µM in assay [8] and 12.8 µM in assay [9].

As to `Nc1ccc(/C=C/c2ccc3cccnc3c2)cc1`, the TGI in assay [1], in [2], in [3], in [5], in [7] and in assay [8] was more than 100 µM each time. Also, the TGI in assay [9] and in assay [10] was more than 100 µM throughout.

With `COc1ccc2c(c1)CCc1c-2n[nH]c1-c1[nH]nc2c1CCc1cc(OC)ccc1-2`, the TGI in assay [1] is more than 100 µM; in assay [2] it was more than 100 µM; in assay [3], more than 100 µM; in [4], more than 100 µM; in [5], 78.1 µM; in [7], more than 100 µM. The TGI is more than 100 µM in [8], 85.9 µM in assay [9] and more than 100 µM in assay [10].

Consider `CCC(CO)Nc1nc2c(c(=O)n(C)c(=O)n2C)n1CCO` (stereo unspecified), for which the TGI in assay [1], in [2], in assay [3], in assay [4], in [5] and in [7] was more than 100 µM each time. For the same molecule, the TGI in assay [8] and in [9] was more than 100 µM throughout.

For the molecule `Nc1c2ccccc2nc2c(C(=O)Nc3ccc(S(N)(=O)=O)cc3)cccc12`, the TGI in assay [1] is 58.6 µM; in [2], more than 100 µM; in assay [3] it was more than 100 µM; in assay [4] it was more than 100 µM; in [6], more than 100 µM; in [7], more than 100 µM. Besides, the TGI in [8], in assay [9] and in assay [10] was more than 100 µM in each case.

`CCCCn1c(=O)c(/C=C/C(=O)/C=C/c2cc3ccccc3n(CCCC)c2=O)cc2ccccc21`: the GI50 in assay [2] is 0.678 µM; in assay [3], 1.96 µM; in assay [4], 2.09 µM; in [5], 1.96 µM; in assay [6], 2.78 µM; in [7], 1.78 µM. Further, the GI50 in [8] was 1.63 µM; in assay [9] it was 2.51 µM. Further, the TGI in assay [2] was found to be 2.2 µM; in assay [3] it was 3.76 µM; in assay [4] it was 5.7 µM; in assay [5], 4.12 µM; in assay [6] it was 9.12 µM; in [7], 3.21 µM. The figures for the TGI in assay [8] and in assay [9] were 3.24 µM and 6 µM, respectively.

With `COc1cc(/C=C2\CCCC3=C2N=C2SC(C)=NN2C3c2cc(OC)c(OC)c(OC)c2)cc(OC)c1OC` (stereo unspecified), the GI50 in assay [1] is 0.391 µM; in [2], 0.322 µM; in [4], more than 100 µM; in assay [5], more than 100 µM; in [7], more than 100 µM. Moreover, the TGI in assay [1], in [2], in assay [4], in assay [5] and in assay [7] was more than 100 µM throughout.

As for `COC(=O)CC[C@]12C[C@]13CC[C@]1(C)C4C(C)C[C@]5(CC(C)C(=O)O5)OC4CC1(C)C3CCC2C(C)(C)O` (stereo partly specified), the TGI in assay [2] was more than 100 µM; in assay [3] it was more than 100 µM; in assay [4], 82.6 µM; in assay [5] it was 65.1 µM; in assay [6], more than 100 µM; in assay [7], more than 100 µM. Besides, in assay [8], the TGI was more than 100 µM.

Consider `O=C1NC2C(O)CCCCC2C12CCCCC2` (stereo unspecified), for which the TGI in assay [1], in assay [2], in [3], in [4], in [5] and in [6] was more than 100 µM each time. The molecule further returned a TGI in [8] of more than 100 µM.

For the molecule `COC(=O)[C@H](Cc1cn(C)cn1)NC(=O)[C@H](Cc1ccccc1)NC(=O)Nc1cc(C(F)(F)F)cc(C(F)(F)F)c1`, the GI50 in [1] was 5.87 µM and 11.4 µM; in assay [2] it was 13.5 µM; in [3], 16.8 µM; in assay [4], 17.7 µM; in assay [6] it was 13.8 µM; in [8], 14.2 µM. For the same molecule, the GI50 was 19.8 µM in assay [9]; 3.9 µM and 8.86 µM in assay [10]. Further, the TGI in assay [1] worked out at 28.9 µM; in assay [2] it was 28.2 µM; in assay [3] it was 32.5 µM; in assay [4], 32.3 µM; in assay [6], 28.5 µM; in assay [8] it was 28.3 µM. The results for the TGI in assay [9] and in [10] were 43.8 µM and 24.8 µM, respectively.

For `c1ccc(OC2=NC3=S(S2)SC(Oc2ccccc2)=N3)cc1`, the TGI stood at 31 µM in assay [1]; 34.4 µM in [2]; 41.9 µM in [3]; 29.8 µM in [4]; 33 µM in assay [7]; 45.1 µM in [8]. The TGI in [9] was 90.4 µM; in assay [10], 28.9 µM.

On to `N#Cc1cc(S(=O)(=O)Nc2nc3ccccc3o2)c(SCc2ccccc2)cc1Cl`, for which the GI50 in assay [2] is 20.3 µM; in assay [3] it was 27 µM; in assay [4] it was 22.3 µM; in assay [5], 17.4 µM; in assay [6] it was 42.1 µM; in assay [7], 52 µM. The GI50 was 20.9 µM in assay [8] and 31.6 µM in [9]. Besides, the TGI in assay [2] is 40.7 µM; in assay [3] it was 52 µM; in assay [4] it was 53.4 µM; in assay [5], 34.2 µM; in assay [6] it was more than 100 µM; in assay [7], more than 100 µM. The TGI in [8] worked out at 56.1 µM; in assay [9] it was 80.8 µM.

As for `COC(=O)N/N=C(\C)CC(=O)Nc1ccc(Cl)cc1`, the TGI in assay [1], in assay [2], in assay [3], in [4], in [5] and in [7] was more than 100 µM throughout. Also, the TGI in [9] and in assay [10] was more than 100 µM in each case.

(Values after PubChem BioAssay (NCI).)
